ChEMBL document CHEMBL3046053, “Synthesis, characterization and herbicidal activity of new thiazoline derivatives” (2013)

Key:
Format in all cases: functional
Details in all cases: read-out: GI
Brassica napus [1] = assay: Herbicidal activity against Brassica napus (oilseed rape) assessed as inhibition of stalk growth at 100 mg/L relative to untreated control
Echinochloa crus-galli [2] = assay: Herbicidal activity against barnyard grass Echinochloa crus-galli (barnyard grass) assessed as inhibition of stalk growth at 100 mg/L relative to untreated control
Echinochloa crus-galli [3] = assay: Herbicidal activity against barnyard grass Echinochloa crus-galli (barnyard grass) assessed as inhibition of root growth at 100 mg/L relative to untreated control
Brassica napus [4] = assay: Herbicidal activity against Brassica napus (oilseed rape) assessed as inhibition of stalk growth at 10 mg/L relative to untreated control
Brassica napus [5] = assay: Herbicidal activity against Brassica napus (oilseed rape) assessed as inhibition of root growth at 10 mg/L relative to untreated control
Echinochloa crus-galli [6] = assay: Herbicidal activity against barnyard grass Echinochloa crus-galli (barnyard grass) assessed as inhibition of stalk growth at 10 mg/L relative to untreated control
Brassica napus [7] = assay: Herbicidal activity against Brassica napus (oilseed rape) assessed as inhibition of root growth at 100 mg/L relative to untreated control
Echinochloa crus-galli [8] = assay: Herbicidal activity against barnyard grass Echinochloa crus-galli (barnyard grass) assessed as inhibition of root growth at 10 mg/L relative to untreated control

| Compound | inhibition of growth at 100 µg/mL (Brassica napus [1]) [%] | inhibition of growth at 100 µg/mL (Echinochloa crus-galli [2]) [%] | inhibition of growth at 100 µg/mL (Echinochloa crus-galli [3]) [%] | inhibition of growth at 10 µg/mL (Brassica napus [4]) [%] | inhibition of growth at 10 µg/mL (Brassica napus [5]) [%] | inhibition of growth at 10 µg/mL (Echinochloa crus-galli [6]) [%] | inhibition of growth at 100 µg/mL (Brassica napus [7]) [%] | inhibition of growth at 10 µg/mL (Echinochloa crus-galli [8]) [%] |
| --- | --- | --- | --- | --- | --- | --- | --- | --- |
| CCOC(=O)c1s/c(=N\c2ccccc2)n(-c2ccccc2)c1N | 64 | 43.3 | 86 | 52 | 37.7 | 31.6 | 71.7 | 69.8 |
| CCOC(=O)c1s/c(=N\Cc2ccccc2)n(-c2ccccc2)c1N | 92 | 44.4 | 83.7 | 20 | 47.2 | 40.7 | 98.1 | 74.4 |
| CCOC(=O)c1s/c(=N\CCCCCC/N=c2/sc(C(=O)OCC)c(N)n2-c2ccccc2)n(-c2ccccc2)c1N | 32 | 38.5 | 69 | 12 | 21.8 | 19.2 | 50 | 34.5 |
| CCCC/N=c1\sc(C(=O)OCC)c(N)n1-c1ccccc1 | 39.1 | 22.6 | 34.4 | 0 | 0 | 19.4 | 29.3 | 25 |
| O=C(O)COc1ccc(Cl)cc1Cl [2,4-DICHLOROPHENOXYACETIC ACID] | 91.2 | 43.5 | 97.5 | 87.5 | 88.8 | 33.3 | 98 | 90 |
| CCCCCC/N=c1\sc(C(=O)OCC)c(N)n1-c1ccccc1 | 89 | 33.3 | 86 | 64 | 43.4 | 33.3 | 92.5 | 76.7 |
| CCOC(=O)c1s/c(=N\Cc2ccccc2Cl)n(-c2ccccc2)c1N | 34.8 | 26.5 | 19.4 | -13 | -9.3 | 12.9 | 38.6 | 18.8 |
| CCC/N=c1\sc(C(=O)OCC)c(N)n1-c1ccccc1 | 26.1 | 35.5 | 68.1 | 4.3 | 40 | 9.7 | 48 | 50 |
| CCOC(=O)c1s/c(=N\c2ccc(C)cc2)n(-c2ccccc2)c1N | 44 | 49.6 | 88.4 | 44 | 34 | 25.9 | 79.2 | 79.1 |
| CCOC(=O)c1s/c(=N\CC/N=c2/sc(C(=O)OCC)c(N)n2-c2ccccc2)n(-c2ccccc2)c1N | 52 | 34.6 | 58.6 | 52 | 39.7 | 15.4 | 76.9 | 37.9 |
| CCOC(=O)c1s/c(=N\CCC/N=c2\sc(C(=O)OCC)c(N)n2-c2ccccc2)n(-c2ccccc2)c1N | 36 | 34.6 | 58.6 | 12 | 7.7 | 3.8 | 41 | 31 |
| CCOC(=O)c1s/c(=N\c2ccc(OC)cc2)n(-c2ccccc2)c1N | 92 | 61.9 | 90.7 | 66 | 64 | 42.2 | 94.3 | 74.4 |
| CCOC(=O)c1s/c(=N\c2ccc(Br)cc2)n(-c2ccccc2)c1N | 72 | 48.1 | 88.4 | 44 | 32.1 | 31.6 | 90.6 | 76.7 |
